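The compound was tested at five concentrations on cells cultured in 96-well plates, with a 48-hour exposure period. GI50: concentration for 50% inhibition of growth.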 Activity calls are given as the source filed them. Rule as the data show it: active = GI50 up to about 1.1 µM and inactive = higher.
Experiments:
Experiment in all cases: NCI-60 cell line screen, 48 h
DMS-114 = system: DMS-114
DMS-273 = system: DMS-273
HOP-18 = system: HOP-18
KM-20L2 = system: KM-20L2
LXFL 529 = system: LXFL 529
M19-MEL = system: M19-MEL
SNB-78 = system: SNB-78
RXF 631 = system: RXF 631
XF498 = system: XF498

| SMILES | GI50 (DMS-114) | GI50 (DMS-273) | GI50 (HOP-18) | GI50 (KM-20L2) | GI50 (LXFL 529) | GI50 (M19-MEL) | GI50 (SNB-78) | GI50 (RXF 631) | GI50 (XF498) |
| --- | --- | --- | --- | --- | --- | --- | --- | --- | --- |
| CCOC(=O)Cc1csc(Nc2ccccc2[N+](=O)[O-])n1 | > 100 µM (inactive) | 99.1 µM (inactive) | > 100 µM (inactive) | > 100 µM (inactive) | > 100 µM (inactive) | > 100 µM (inactive) | > 100 µM (inactive) |  |  |
| NC(N)NCCCc1cn2c(n1)C1CCCN1C(=O)C2Cc1ccccc1 (centres undefined) | > 100 µM (inactive) | > 100 µM (inactive) |  | > 100 µM (inactive) | > 100 µM (inactive) | > 100 µM (inactive) | > 100 µM (inactive) | > 100 µM (inactive) | > 100 µM (inactive) |
| C[n+]1ccc(Nc2ccc(NC(=O)c3ccc(Nc4cc[n+](C)c5ccc([N+](=O)[O-])cc45)cc3[N+](=O)[O-])cc2)cc1 | 0.692 µM (active) | 27.2 µM (inactive) | 20.5 µM (inactive) | > 100 µM (inactive) | 15.8 µM (inactive) | 18.3 µM (inactive) |  |  | 33.5 µM (inactive) |
| O=[N+]([O-])C(=C1c2ccccc2-c2ccccc21)[N+](=O)[O-] |  | > 10 µM (inactive) |  | 57.3 µM (inactive) | 41.3 µM (inactive) |  | > 100 µM (inactive) |  |  |
| O=C(Cc1nc2ccccc2s1)C(=O)Nc1ccc(Cl)cc1 | > 100 µM (inactive) | > 100 µM (inactive) | > 100 µM (inactive) | > 100 µM (inactive) | > 100 µM (inactive) | > 100 µM (inactive) | > 100 µM (inactive) |  |  |
| CCOC(=O)C12CCCC1(O)N(NC(=O)OC(C)(C)C)C(C)=C2C(=O)OC (centres undefined) | > 100 µM (inactive) | > 100 µM (inactive) | > 100 µM (inactive) | > 100 µM (inactive) | > 100 µM (inactive) | > 100 µM (inactive) | > 100 µM (inactive) | > 100 µM (inactive) | > 100 µM (inactive) |
| O=c1c2cccnc2ncn1CCCN1CCOCC1 | > 100 µM (inactive) | > 100 µM (inactive) |  | > 100 µM (inactive) | > 100 µM (inactive) | > 100 µM (inactive) | > 100 µM (inactive) |  | > 100 µM (inactive) |
| Cc1c(C2Cc3ccccc3N2)c2ccccc2n1C (centres undefined) | > 100 µM (inactive) | > 100 µM (inactive) |  | > 100 µM (inactive) | > 100 µM (inactive) | > 100 µM (inactive) | > 100 µM (inactive) |  | > 100 µM (inactive) |
| O=c1c2ccccc2[nH]c(=S)n1-c1ccc(Br)cc1 | 46.7 µM (inactive) |  | > 100 µM (inactive) | 63.4 µM (inactive) | 37.3 µM (inactive) | 74.8 µM (inactive) | > 100 µM (inactive) |  | > 100 µM (inactive) |
| COC(=O)[C@@H]1C(=O)O[C@@H](c2cc(OC)c(OC)cc2OC)[C@@H]1C(=O)OC.COC(=O)[C@H]1C(=O)O[C@@H](c2cc(OC)c(OC)cc2OC)[C@@H]1C(=O)OC | > 100 µM (inactive) | > 100 µM (inactive) |  | > 100 µM (inactive) | > 100 µM (inactive) | > 100 µM (inactive) | > 100 µM (inactive) | > 100 µM (inactive) | > 100 µM (inactive) |
| COc1ccc2c[n+](C)c3c4cc(OC)c(OC)cc4ccc3c2c1 | 1.05 µM (active) | 2.28 µM (inactive) | 28.6 µM (inactive) | 3.52 µM (inactive) | 1.21 µM (inactive) | 12.4 µM (inactive) | 12.2 µM (inactive) | 15.5 µM (inactive) | 9.84 µM (inactive) |
| O=C1NC2OC(CO)C(O)C(O1)C2O (centres undefined) | > 100 µM (inactive) | > 100 µM (inactive) | > 100 µM (inactive) | > 100 µM (inactive) | > 100 µM (inactive) | > 100 µM (inactive) | > 100 µM (inactive) |  | > 100 µM (inactive) |
| CCCc1n[nH]c(CCC(=O)N(Cc2ccccc2)Cc2ccccc2)c1CC | > 100 µM (inactive) | > 100 µM (inactive) | > 100 µM (inactive) | > 100 µM (inactive) | > 100 µM (inactive) | > 100 µM (inactive) |  | > 100 µM (inactive) | > 100 µM (inactive) |
| COc1ccc(/C=C/c2cc(OC)c(OC(C)=O)c(OC)c2)cc1 | 26.5 µM (inactive) | 31.2 µM (inactive) |  | 35.1 µM (inactive) | 27.5 µM (inactive) | 30.1 µM (inactive) | 22 µM (inactive) | 36.1 µM (inactive) | 34.5 µM (inactive) |
| COc1ccc(NC(=O)CC2S/C(=N\c3ccccc3C)NC2=O)c([N+](=O)[O-])c1 (centres undefined) |  | > 100 µM (inactive) |  | > 100 µM (inactive) | > 100 µM (inactive) | > 100 µM (inactive) | > 100 µM (inactive) |  | > 100 µM (inactive) |
| Cc1cccc(C(C)(C)C)c1NC(=O)CCc1n[nH]c(=S)o1 | 43.3 µM (inactive) | 40.9 µM (inactive) | > 100 µM (inactive) | > 100 µM (inactive) | > 100 µM (inactive) | > 100 µM (inactive) | > 100 µM (inactive) |  |  |
| Cn1c(=O)oc2cc(C3CCC(=O)N3Cc3csc(-c4ccccc4)n3)ccc21 (centres undefined) | > 100 µM (inactive) | 89.5 µM (inactive) | > 100 µM (inactive) | > 100 µM (inactive) | 96.6 µM (inactive) | > 100 µM (inactive) | > 100 µM (inactive) |  | 67.1 µM (inactive) |
| CC1C=C(OC(=O)c2ccccc2)C(=O)C(n2cc(F)c(=O)[nH]c2=O)O1 (centres undefined) | > 100 µM (inactive) | 42.8 µM (inactive) | > 100 µM (inactive) | 94.6 µM (inactive) | 56 µM (inactive) | 93.3 µM (inactive) | > 100 µM (inactive) |  | 48.1 µM (inactive) |
| CN(CCCN1C(=O)c2cccc3cc([N+](=O)[O-])cc(c23)C1=O)CCN(C)CCCN1C(=O)c2cccc3cc([N+](=O)[O-])cc(c23)C1=O | 33.6 µM (inactive) | 11.4 µM (inactive) | > 39.3 µM (inactive) | > 39.3 µM (inactive) | 2.45 µM (inactive) | 18.2 µM (inactive) | > 39.3 µM (inactive) | > 39.3 µM (inactive) | > 39.3 µM (inactive) |
| COc1cc(-c2n[nH]cc2CCCC(=O)Nc2ccccc2[N+](=O)[O-])ccc1O | 25.4 µM (inactive) | 66.7 µM (inactive) | > 100 µM (inactive) |  | > 100 µM (inactive) |  |  |  | > 100 µM (inactive) |
| CCC1C(C(=O)Nc2ccccc2C)=C(C)NC(C)=C1c1ccccc1C (centres undefined) |  | > 49 µM (inactive) | > 60.8 µM (inactive) | > 92.3 µM (inactive) | > 100 µM (inactive) | > 80.4 µM (inactive) | > 100 µM (inactive) |  | > 100 µM (inactive) |
| Cc1ccccc1C1CC(c2ccccc2)=NO1 (centres undefined) | > 100 µM (inactive) | > 100 µM (inactive) | > 100 µM (inactive) | > 100 µM (inactive) | > 100 µM (inactive) |  | > 100 µM (inactive) | > 100 µM (inactive) |  |
| c1ccc2c(c1)Cc1c(Cc3csc4ccccc34)ccc3cccc-2c13 | > 100 µM (inactive) | > 100 µM (inactive) |  | > 100 µM (inactive) | > 100 µM (inactive) | > 100 µM (inactive) | 94.4 µM (inactive) | > 100 µM (inactive) | > 100 µM (inactive) |
| CN(C)CCn1c2c3ccccc3ccc2c2oc(=O)c3ccccc3c21 |  |  | 16.1 µM (inactive) | 7.08 µM (inactive) | 4.98 µM (inactive) | 5.46 µM (inactive) | 19.7 µM (inactive) | 4.53 µM (inactive) | 15.3 µM (inactive) |
| C/C(CC(=O)Nc1ccc([N+](=O)[O-])cc1)=N\NC(N)=O | > 45.8 µM (inactive) | > 66.5 µM (inactive) | > 100 µM (inactive) | > 64.9 µM (inactive) | > 80.2 µM (inactive) | > 100 µM (inactive) | > 100 µM (inactive) |  | > 100 µM (inactive) |
| Cc1ccc2c(c1)SC(c1cc3c(cc1Br)OCO3)S2 (centres undefined) | 15.8 µM (inactive) | 20 µM (inactive) | > 31.6 µM (inactive) | 26.1 µM (inactive) | > 31.6 µM (inactive) | 28.6 µM (inactive) | > 31.6 µM (inactive) | > 10 µM (inactive) | > 100 µM (inactive) |
| Cc1cccc(C)c1NC(=O)CCc1nnc2s/c(=C\c3ccc(Cl)cc3)c(=O)n12 | > 100 µM (inactive) | 54.6 µM (inactive) | > 100 µM (inactive) | > 100 µM (inactive) | 75.7 µM (inactive) | > 100 µM (inactive) | 70 µM (inactive) |  | 52.8 µM (inactive) |
| CC(=O)O[C@H]1CC[C@@]2(C)C(=CC[C@H]3C(CC#N)[C@@](C)(C#N)CCC32)C1 (some centres undefined) | > 100 µM (inactive) | > 100 µM (inactive) |  | > 100 µM (inactive) | > 100 µM (inactive) | > 100 µM (inactive) | 47.6 µM (inactive) |  | > 100 µM (inactive) |
| CC(C)CC(CNC(Cc1ccc(Cl)cc1)C(N)=O)NC(=O)C(Cc1c[nH]cn1)NC(=O)CNC(=O)C(NC(=O)C(C)NC(=O)C(Cc1c[nH]c2ccccc12)NC(=O)C(CCC(=O)O)NC(=O)C(N)Cc1ccccc1)C(C)C (centres undefined) | 119 µM (inactive) | > 133 µM (inactive) |  | > 133 µM (inactive) | > 133 µM (inactive) | > 133 µM (inactive) | > 133 µM (inactive) | > 133 µM (inactive) | > 133 µM (inactive) |
| CCOC(=O)c1c(/C=N\Nc2ccccc2)nc2ccccc2c1-c1ccccc1 | 41.6 µM (inactive) | 25 µM (inactive) | 31 µM (inactive) | 38.5 µM (inactive) | 27.2 µM (inactive) | 26.8 µM (inactive) | 51.1 µM (inactive) | 41.2 µM (inactive) |  |

Reference: ChEMBL document CHEMBL1201862, “PubChem BioAssay data set” (2004)
